Results on 36 molecules are retold here after patent publication US10266513B2 (Pfizer Inc., priority 2012, dated 2019).

In the assay the target is human full-length BTK Kinase (Homo sapiens (Human), UniProt Q06187). The assay can be described thus: Human BTK LanthaScreen Assay (TR-FRET). The assay is classed as biochemical. Particulars: 50 μM ATP, FAM-Srctide peptide substrate, read-out: BTK Inhibition IC50. From the text: Human BTK LanthaScreen Assay
Sequence of human full-length BTK Kinase (Q06187 whole entry): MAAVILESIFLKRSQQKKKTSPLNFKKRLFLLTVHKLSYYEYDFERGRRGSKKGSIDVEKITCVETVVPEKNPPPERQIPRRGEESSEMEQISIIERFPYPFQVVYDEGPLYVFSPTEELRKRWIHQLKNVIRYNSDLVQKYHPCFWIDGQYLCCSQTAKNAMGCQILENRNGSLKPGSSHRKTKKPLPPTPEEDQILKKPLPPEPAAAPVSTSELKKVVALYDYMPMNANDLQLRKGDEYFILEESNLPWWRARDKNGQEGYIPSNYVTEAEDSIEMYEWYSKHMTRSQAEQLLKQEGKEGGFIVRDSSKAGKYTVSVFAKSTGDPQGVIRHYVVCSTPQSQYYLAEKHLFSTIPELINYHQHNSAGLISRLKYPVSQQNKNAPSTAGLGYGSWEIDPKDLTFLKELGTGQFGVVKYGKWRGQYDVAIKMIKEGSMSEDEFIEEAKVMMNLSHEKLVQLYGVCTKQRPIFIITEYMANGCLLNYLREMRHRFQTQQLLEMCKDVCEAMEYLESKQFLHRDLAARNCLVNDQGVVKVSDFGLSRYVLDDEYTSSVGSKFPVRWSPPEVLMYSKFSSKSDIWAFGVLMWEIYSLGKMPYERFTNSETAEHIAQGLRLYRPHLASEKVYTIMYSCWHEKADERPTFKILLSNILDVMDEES
For orientation: Time-resolved FRET reads energy transfer from a long-lived donor to a nearby acceptor.
As a reminder, the IC50 is the point on the concentration scale where inhibition reaches its midpoint. On to `N#CN1CCCC(n2nc(-c3ccc(Oc4cc(F)ccc4F)cc3)c(C(N)=O)c2N)C1` (stereo not drawn) [Example 43, 5-amino-1-(1-cyanopiperidin-3-yl)-3-[4-(2,5-difluorophenoxy)phenyl]-1H-pyrazole-4-carboxamide], for which the IC50 amounted to 0.77 nM.

Take `CC(C)Oc1ccc(Oc2ccc(-c3nn(C4CCCN(C#N)C4)c(N)c3C(N)=O)cc2)cc1` (stereo not drawn) [Example 44, 5-amino-1-(1-cyanopiperidin-3-yl)-3-[4-(4-isopropoxyphenoxy)phenyl]-1H-pyrazole-4-carboxamide]: the IC50 was 24.4 nM.

`N#CN1CCCC(n2nc(-c3ccc(Oc4cc(F)ccc4Cl)cc3)c(C(N)=O)c2N)C1` (stereo not drawn) [Example 45, 5-amino-3-[4-(2-chloro-5-fluoro-phenoxy)phenyl]-1-(1-cyanopiperidin-3-yl)-1H-pyrazole-4-carboxamide]: the IC50 was determined as 0.81 nM.

Regarding `N#CN1CCCC(n2nc(-c3ccc(Oc4ccc(F)c(OC(F)(F)F)c4)cc3)c(C(N)=O)c2N)C1` (stereo not drawn) [Example 46, 5-amino-1-(1-cyanopiperidin-3-yl)-3-{4-[4-fluoro-3-(trifluoromethoxy)-phenoxy]phenyl}-1H-pyrazole-4-carboxamide], the IC50 was determined as 6.4 nM.

With `COc1cc(F)ccc1Oc1ccc(-c2nn(C3CCCN(C#N)C3)c(N)c2C(N)=O)cc1` (stereo not drawn) [Example 47, 5-amino-1-(1-cyanopiperidin-3-yl)-3-{4-[4-fluoro-2-methoxyphenoxy]phenyl}-1H-pyrazole-4-carboxamide], the IC50 was 1.6 nM.

With `COc1cccc(Oc2ccc(-c3nn(C4CCCN(C#N)C4)c(N)c3C(N)=O)cc2)c1` (stereo not drawn) [Example 48, 5-amino-1-(1-cyanopiperidin-3-yl)-3-[4-(3-methoxyphenoxy)phenyl]-1H-pyrazole-4-carboxamide], the IC50 was 0.44 nM.

As to `N#CN1CCCC(n2nc(-c3ccc(Oc4cc(Cl)ccc4F)cc3)c(C(N)=O)c2N)C1` (stereo not drawn) [Example 49, 5-amino-3-[4-(5-chloro-2-fluorophenoxy)phenyl]-1-(1-cyanopiperidin-3-yl)-1H-pyrazole-4-carboxamide], the 50% inhibitory concentration (IC50) worked out at 2.2 nM.

As for `N#CN1CCCC(n2nc(-c3ccc(Oc4ccc(Cl)cc4Cl)cc3)c(C(N)=O)c2N)C1` (stereo not drawn) [Example 50, 5-amino-1-(1-cyanopiperidin-3-yl)-3-[4-(2,4-dichlorophenoxy)phenyl]-1H-pyrazole-4-carboxamide], the IC50 is 1.8 nM.

Consider `N#CN1CCCC(n2nc(-c3ccc(Oc4cc(F)cc(Cl)c4)cc3)c(C(N)=O)c2N)C1` (stereo not drawn) [Example 51, 5-amino-3-[4-(3-chloro-5-fluoro-phenoxy)phenyl]-1-(1-cyanopiperidin-3-yl)-1H-pyrazole-4-carboxamide], for which the IC50 was 1.9 nM.

Regarding `N#CN1CCCC(n2nc(-c3ccc(Oc4ccccc4C(F)(F)F)cc3)c(C(N)=O)c2N)C1` (stereo not drawn) [Example 52, 5-amino-1-(1-cyanopiperidin-3-yl)-3-{4-[2-(trifluoromethyl)phenoxy]-phenyl}-1H-pyrazole-4-carboxamide], the IC50 was 2.9 nM.

With `N#CN1CCCC(n2nc(-c3ccc(Oc4cccc(Cl)c4)cc3)c(C(N)=O)c2N)C1` (stereo not drawn) [Example 53, 5-amino-3-[4-(3-chlorophenoxy)-phenyl]-1-(1-cyanopiperidin-3-yl)-1H-pyrazole-4-carboxamide], the IC50 was found to be 1.7 nM.

Take `Cc1c(F)cccc1Oc1ccc(-c2nn(C3CCCN(C#N)C3)c(N)c2C(N)=O)cc1` (stereo not drawn) [Example 54, 5-amino-1-(1-cyanopiperidin-3-yl)-3-[4-(3-fluoro-2-methylphenoxy)phenyl]-1H-pyrazole-4-carboxamide]: the IC50 was 1.2 nM.

In the case of `N#CN1CCCC(n2nc(-c3ccc(Oc4cc(Cl)ccc4Cl)cc3)c(C(N)=O)c2N)C1` (stereo not drawn) [Example 55, 5-amino-1-(1-cyanopiperidin-3-yl)-3-[4-(2,5-dichlorophenoxy)phenyl]-1H-pyrazole-4-carboxamide], the IC50 is 2.2 nM.

Take `N#CN1CCCC(n2nc(-c3ccc(Oc4ccccc4Cl)cc3)c(C(N)=O)c2N)C1` (stereo not drawn) [Example 56, 5-amino-3-[4-(2-chlorophenoxy)-phenyl]-1-(1-cyanopiperidin-3-yl)-1H-pyrazole-4-carboxamide]: the IC50 worked out at 1.3 nM.

Turning to `N#CN1CCCC(n2nc(-c3ccc(Oc4cccc(Cl)c4F)cc3)c(C(N)=O)c2N)C1` (stereo not drawn) [Example 57, 5-amino-3-[4-(3-chloro-2-fluoro-phenoxy)phenyl]-1-(1-cyanopiperidin-3-yl)-1H-pyrazole-4-carboxamide], the IC50 was found to be 3.1 nM.

Consider `N#CN1CCCC(n2nc(-c3ccc(Oc4ccc(F)c(Cl)c4)cc3)c(C(N)=O)c2N)C1` (stereo not drawn) [Example 58, 5-amino-3-[4-(3-chloro-4-fluoro-phenoxy)phenyl]-1-(1-cyanopiperidin-3-yl)-1H-pyrazole-4-carboxamide], for which the IC50 came out at 1.8 nM.

Consider `N#CN1CCCC(n2nc(-c3ccc(Oc4cc(F)c(F)cc4F)cc3)c(C(N)=O)c2N)C1` (stereo not drawn) [Example 59, 5-amino-1-(1-cyanopiperidin-3-yl)-3-[4-(2,4,5-trifluorophenoxy)phenyl]-1H-pyrazole-4-carboxamide], for which the IC50 stood at 8.5 nM.

As to `N#CN1CCCC(n2nc(-c3ccc(Oc4cc(Cl)cc(Cl)c4)cc3)c(C(N)=O)c2N)C1` (stereo not drawn) [Example 60, 5-amino-1-(1-cyanopiperidin-3-yl)-3-[4-(3,5-dichlorophenoxy)phenyl]-1H-pyrazole-4-carboxamide], the half-maximal inhibitory concentration (IC50) was 4.8 nM.

With `N#CN1CCCC(n2nc(-c3ccc(Oc4ccc(F)c(F)c4F)cc3)c(C(N)=O)c2N)C1` (stereo not drawn) [Example 61, 5-amino-1-(1-cyanopiperidin-3-yl)-3-[4-(2,3,4-trifluorophenoxy)phenyl]-1H-pyrazole-4-carboxamide], the IC50 is 5.1 nM.

For the molecule `N#CN1CCCC(n2nc(-c3ccc(Oc4ccccc4OC(F)(F)F)cc3)c(C(N)=O)c2N)C1` (stereo not drawn) [Example 62, 5-amino-1-(1-cyanopiperidin-3-yl)-3-{4-[2-(trifluoromethoxy)phenoxy]phenyl}-1H-pyrazole-4-carboxamide], the IC50 came to 3.3 nM.

On to `N#CN1CCCC(n2nc(-c3ccc(Oc4c(F)cccc4Cl)cc3)c(C(N)=O)c2N)C1` (stereo not drawn) [Example 63, 5-amino-3-[4-(2-chloro-6-fluoro-phenoxy)phenyl]-1-(1-cyanopiperidin-3-yl)-1H-pyrazole-4-carboxamide], for which the IC50 came to 4.9 nM.

Turning to `N#CN1CCCC(n2nc(-c3ccc(Oc4ccc(F)c(C(F)(F)F)c4)cc3)c(C(N)=O)c2N)C1` (stereo not drawn) [Example 64, 5-amino-1-(1-cyanopiperidin-3-yl)-3-{4-[4-fluoro-3-(trifluoromethyl)phenoxy]phenyl}-1H-pyrazole-4-carboxamide], the IC50 is 8.7 nM.

Turning to `COc1ccccc1Oc1ccc(-c2nn(C3CCCN(C#N)C3)c(N)c2C(N)=O)cc1` (stereo not drawn) [Example 65, 5-amino-1-(1-cyanopiperidin-3-yl)-3-[4-(2-methoxyphenoxy)phenyl]-1H-pyrazole-4-carboxamide], the IC50 was found to be 10.6 nM.

In the case of `N#CN1CCCC(n2nc(-c3ccc(Oc4cc(F)cc(F)c4)cc3)c(C(N)=O)c2N)C1` (stereo not drawn) [Example 66, 5-amino-1-(1-cyanopiperidin-3-yl)-3-[4-(3,5-difluorophenoxy)phenyl]-1H-pyrazole-4-carboxamide], the IC50 stood at 7.2 nM.

Regarding `N#CN1CCCC(n2nc(-c3ccc(Cc4ccccc4)cc3)c(C(N)=O)c2N)C1` (stereo not drawn) [Example 67], the IC50 was found to be 2.4 nM.

Turning to `Cc1cccc(Cc2ccc(-c3nn(C4CCCN(C#N)C4)c(N)c3C(N)=O)cc2)c1` (stereo not drawn) [Example 68, 5-amino-1-(1-cyanopiperidin-3-yl)-3-[4-(3-methylbenzyl)phenyl]-1H-pyrazole-4-carboxamide], the IC50 turned out to be 1.9 nM.

As for `Cc1cccc(Cc2ccc(-c3nn([C@@H]4CCCN(C#N)C4)c(N)c3C(N)=O)cc2)c1` [Example 69, (R)-5-amino-1-(1-cyanopiperidin-3-yl)-3-(4-(3-methylbenzyl)phenyl)-1H-pyrazole-4-carboxamide], the IC50 came out at 0.6 nM.

Turning to `Cc1cccc(Cc2ccc(-c3nn([C@H]4CCCN(C#N)C4)c(N)c3C(N)=O)cc2)c1` [Example 70, (S)-5-amino-1-(1-cyanopiperidin-3-yl)-3-(4-(3-methylbenzyl)phenyl)-1H-pyrazole-4-carboxamide], the IC50 was found to be 21.9 nM.

`N#CN1CCCC(n2nc(-c3ccc(Cc4ccccc4Cl)cc3)c(C(N)=O)c2N)C1` (stereo not drawn) [Example 71, 5-amino-3-(4-(2-chlorobenzyl)phenyl)-1-(1-cyanopiperidin-3-yl)-1H-pyrazole-4-carboxamide]: the IC50 is 2.7 nM.

`N#CN1CCC[C@@H](n2nc(-c3ccc(Cc4ccccc4Cl)cc3)c(C(N)=O)c2N)C1` [Example 72, (R)-5-amino-3-(4-(2-chlorobenzyl)phenyl)-1-(1-cyanopiperidin-3-yl)-1H-pyrazole-4-carboxamide]: the IC50 worked out at 0.54 nM.

Regarding `N#CN1CCC[C@H](n2nc(-c3ccc(Cc4ccccc4Cl)cc3)c(C(N)=O)c2N)C1` [Example 73, (S)-5-amino-3-(4-(2-chlorobenzyl)phenyl)-1-(1-cyanopiperidin-3-yl)-1H-pyrazole-4-carboxamide], the IC50 is 6.1 nM.

On to `N#CN1CCCC(n2nc(-c3ccc(Cc4ccccc4F)cc3)c(C(N)=O)c2N)C1` (stereo not drawn) [Example 74, 5-amino-1-(1-cyanopiperidn-3-yl)-3-[4-(2-fluorobenzyl)phenyl]-1H-pyrazole-4-carboxamide], for which the IC50 stood at 1 nM.

For the molecule `N#CN1CCC[C@H](n2nc(-c3ccc(Cc4ccccc4F)cc3)c(C(N)=O)c2N)C1` [Example 76, (S)-5-amino-1-(1-cyanopiperidin-3-yl)-3-(4-(2-fluorobenzyl)phenyl)-1H-pyrazole-4-carboxamide], the IC50 was determined as 12 nM.

As to `N#CN1CCCC(n2nc(-c3ccc(Cc4cccc(F)c4)cc3)c(C(N)=O)c2N)C1` (stereo not drawn) [Example 77, 5-amino-1-(1-cyanopiperidin-3-yl)-3-[4-(3-fluorobenzyl)phenyl]-1H-pyrazole-4-carboxamide], the IC50 was found to be 2.3 nM.

As for `N#CN1CCCC(n2nc(-c3ccc(Cc4ccc(F)cc4F)cc3)c(C(N)=O)c2N)C1` (stereo not drawn) [Example 80, 5-amino-1-(1-cyanopiperidin-3-yl)-3-[4-(2,4-difluorobenzyl)phenyl]-1H-pyrazole-4-carboxamide], the IC50 came to 15.6 nM.

On to `N#CN1CCCC(n2nc(-c3ccc(Cc4ccc(F)c(F)c4)cc3)c(C(N)=O)c2N)C1` (stereo not drawn) [Example 83, 5-amino-1-(1-cyanopiperidin-3-yl)-3-[4-(3,4-difluorobenzyl)phenyl]-1H-pyrazole-4-carboxamide], for which the IC50 was 15.3 nM.
